Source: ChEMBL document CHEMBL1914445 (Eur J Med Chem, 2011)
pIC50, pKi: −log10 of the molar value.

What was measured:
Cholinesterase [1] = biological target: T1, Cholinesterase (Equus caballus, UniProt P81908); experiment: Inhibition of equine serum BuChE using butyrylthiocholine iodide as substrate preincubated for 10 mins before substrate addition by Ellman's method
Acetylcholinesterase [2] = biological target: T2, Acetylcholinesterase (Electrophorus electricus, UniProt O42275)
Description: Inhibition of Electrophorus electricus AChE using acetylthiocholine iodide as substrate preincubated for 10 mins before substrate addition by Ellman's method

Acetylcholinesterase [3] = biological target: T3, Acetylcholinesterase (Homo sapiens, UniProt P22303); experiment: Inhibition of human recombinant AChE using acetylthiocholine as substrate by Ellman's assay in presence of bovine serum albumin
Cholinesterase [4] = biological target: T4, Cholinesterase (Homo sapiens, UniProt P06276); experiment: Inhibition of human serum BuChE using butyrylthiocholine as substrate by Ellman's assay in presence of bovine serum albumin
Acetylcholinesterase [5] = biological target: T2, Acetylcholinesterase; remark: listed apart in the source
Description: Inhibition of Electrophorus electricus AChE using acetylthiocholine iodide as substrate preincubated for 10 mins before substrate addition by Ellman's method in presence of bovine serum albumin

Cholinesterase [6] = biological target: T1, Cholinesterase
Description: Inhibition of equine serum BuChE using butyrylthiocholine iodide as substrate preincubated for 10 mins before substrate addition by Ellman's method in presence of bovine serum albumin

Acetylcholinesterase [7] = biological target: T3, Acetylcholinesterase; experiment: Inhibition of human recombinant AChE using acetylthiocholine as substrate by Ellman's assay
Cholinesterase [8] = biological target: T4, Cholinesterase; experiment: Inhibition of human serum BuChE using butyrylthiocholine as substrate by Ellman's assay
Homo sapiens = organism: Homo sapiens; experiment: Selectivity ratio of IC50 for human […]
Acetylcholinesterase [9] = biological target: T2, Acetylcholinesterase; experiment: Mixed-type inhibition of Electrophorus electricus AChE assessed as hydrolysis of acetylthiocholine by Lineweaver-Burk plot analysis
SH-SY5Y [10] = experiment: Neuroprotective activity against amyloid beta(25-32)-induced toxicity in human SH-SY5Y cells assessed as reduction in cell viability at 0.3 uM preincubated for 24 hrs measured after 24 hrs by MTT assay; type: functional
SH-SY5Y [11] = experiment: Neuroprotective activity against amyloid beta(25-32)-induced toxicity in human SH-SY5Y cells assessed as reduction in cell viability at 1 uM preincubated for 24 hrs measured after 24 hrs by MTT assay; type: functional
SH-SY5Y [12] = experiment: Neuroprotective activity against amyloid beta(25-32)-induced toxicity in human SH-SY5Y cells assessed as reduction in cell viability at 3 uM preincubated for 24 hrs measured after 24 hrs by MTT assay; type: functional

T3 sequence (P22303 whole entry): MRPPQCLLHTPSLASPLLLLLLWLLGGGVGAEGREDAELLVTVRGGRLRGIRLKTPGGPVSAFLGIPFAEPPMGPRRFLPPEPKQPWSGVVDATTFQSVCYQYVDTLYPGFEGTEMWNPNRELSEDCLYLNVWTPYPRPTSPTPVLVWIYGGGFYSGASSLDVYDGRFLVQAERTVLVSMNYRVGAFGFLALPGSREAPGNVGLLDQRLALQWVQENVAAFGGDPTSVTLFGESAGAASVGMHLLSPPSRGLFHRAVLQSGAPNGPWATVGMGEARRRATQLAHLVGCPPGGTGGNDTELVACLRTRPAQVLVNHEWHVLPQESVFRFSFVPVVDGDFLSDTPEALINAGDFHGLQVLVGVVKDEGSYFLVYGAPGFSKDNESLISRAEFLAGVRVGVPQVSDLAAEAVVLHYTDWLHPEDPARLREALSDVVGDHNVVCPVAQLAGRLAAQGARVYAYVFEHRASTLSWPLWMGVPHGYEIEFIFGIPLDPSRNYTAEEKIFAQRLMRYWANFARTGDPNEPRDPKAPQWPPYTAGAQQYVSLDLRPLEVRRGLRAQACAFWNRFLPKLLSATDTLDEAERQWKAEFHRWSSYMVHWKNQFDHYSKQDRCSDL
T1 sequence (P81908 whole entry): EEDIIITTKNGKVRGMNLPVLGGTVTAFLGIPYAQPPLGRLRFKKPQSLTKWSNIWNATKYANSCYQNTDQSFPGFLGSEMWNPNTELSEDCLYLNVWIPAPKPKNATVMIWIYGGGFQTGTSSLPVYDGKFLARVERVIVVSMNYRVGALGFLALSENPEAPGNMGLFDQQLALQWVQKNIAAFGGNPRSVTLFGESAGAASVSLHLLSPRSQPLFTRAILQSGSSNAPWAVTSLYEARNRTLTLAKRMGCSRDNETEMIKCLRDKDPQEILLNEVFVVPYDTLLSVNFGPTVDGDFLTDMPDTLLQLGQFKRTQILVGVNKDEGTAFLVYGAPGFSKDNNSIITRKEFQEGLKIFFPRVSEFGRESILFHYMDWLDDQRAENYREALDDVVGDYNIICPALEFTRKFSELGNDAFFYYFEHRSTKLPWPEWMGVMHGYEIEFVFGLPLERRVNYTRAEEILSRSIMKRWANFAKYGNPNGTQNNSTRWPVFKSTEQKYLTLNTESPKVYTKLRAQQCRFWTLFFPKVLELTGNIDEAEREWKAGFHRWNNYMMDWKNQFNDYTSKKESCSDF
T2 sequence (O42275 whole entry): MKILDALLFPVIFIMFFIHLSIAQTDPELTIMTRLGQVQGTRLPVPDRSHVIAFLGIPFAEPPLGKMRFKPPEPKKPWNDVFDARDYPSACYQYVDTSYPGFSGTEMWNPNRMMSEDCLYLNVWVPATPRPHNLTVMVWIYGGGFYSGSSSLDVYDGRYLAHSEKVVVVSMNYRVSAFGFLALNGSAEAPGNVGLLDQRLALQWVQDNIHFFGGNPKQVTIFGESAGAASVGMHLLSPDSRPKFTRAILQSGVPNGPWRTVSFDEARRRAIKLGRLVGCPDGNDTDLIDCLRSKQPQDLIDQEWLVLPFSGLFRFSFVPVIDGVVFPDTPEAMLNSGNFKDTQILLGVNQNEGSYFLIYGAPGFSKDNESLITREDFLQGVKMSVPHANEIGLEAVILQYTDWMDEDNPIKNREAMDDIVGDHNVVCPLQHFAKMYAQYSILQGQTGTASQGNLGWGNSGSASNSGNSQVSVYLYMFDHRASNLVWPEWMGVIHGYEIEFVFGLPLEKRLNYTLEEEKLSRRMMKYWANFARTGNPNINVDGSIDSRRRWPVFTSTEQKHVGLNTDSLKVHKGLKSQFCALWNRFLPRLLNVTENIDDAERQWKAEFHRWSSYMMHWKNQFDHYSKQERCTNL
T4 sequence (P06276 whole entry): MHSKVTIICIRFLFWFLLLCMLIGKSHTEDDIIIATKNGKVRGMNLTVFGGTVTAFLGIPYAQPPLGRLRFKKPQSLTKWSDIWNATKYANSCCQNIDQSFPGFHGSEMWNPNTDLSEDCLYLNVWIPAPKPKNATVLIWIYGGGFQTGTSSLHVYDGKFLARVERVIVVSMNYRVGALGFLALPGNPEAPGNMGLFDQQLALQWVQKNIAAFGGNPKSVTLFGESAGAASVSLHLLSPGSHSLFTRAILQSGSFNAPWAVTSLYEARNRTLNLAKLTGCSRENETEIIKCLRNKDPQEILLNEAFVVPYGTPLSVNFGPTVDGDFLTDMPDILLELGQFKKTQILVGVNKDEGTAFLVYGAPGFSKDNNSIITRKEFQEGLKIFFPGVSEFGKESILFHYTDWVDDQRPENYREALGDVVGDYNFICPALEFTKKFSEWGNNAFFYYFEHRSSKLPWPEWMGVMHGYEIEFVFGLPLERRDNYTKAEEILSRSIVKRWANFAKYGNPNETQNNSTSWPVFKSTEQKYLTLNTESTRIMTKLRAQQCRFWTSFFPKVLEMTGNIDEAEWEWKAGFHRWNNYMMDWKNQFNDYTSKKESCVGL

With `Nc1c2c(nc3oc(-c4ccccc4)cc13)CCCCC2` the pIC50 (Cholinesterase [1]) was 5.22 and the pIC50 (Acetylcholinesterase [2]) was < 4.00.

`N#Cc1c(-c2ccc(Cl)cc2)oc2nc3c(c(N)c12)CCCC3` was tested, and the pIC50 (Acetylcholinesterase [3]) was < 4.00, the pIC50 (Cholinesterase [4]) was < 4.00 and the pIC50 (Acetylcholinesterase [5]) was < 4.00. For the same compound, the pIC50 (Cholinesterase [6]) was 4.49.

With `Nc1c2c(nc3c1cc(-c1ccccc1)n3-c1ccccc1)CCCCC2` the pIC50 (Acetylcholinesterase [5]) was < 4.52 and the pIC50 (Cholinesterase [6]) was 5.96.

`Nc1c2c(nc3c1cc(-c1ccccc1)n3-c1ccccc1)CCCC2` gave a pIC50 (Cholinesterase [1]) of 7.13, a pIC50 (Acetylcholinesterase [7]) of 4.34 and a pIC50 (Cholinesterase [8]) of 5.07. The Ratio IC50 (Homo sapiens) was 5, the pKi (Acetylcholinesterase [9]) was 6.21 and the Activity (SH-SY5Y [10]) was 11.4%. It also gave an Activity (SH-SY5Y [11]) of 19%, an Activity (SH-SY5Y [12]) of 23.7% and a pIC50 (Acetylcholinesterase [2]) of 6.21.

With `Nc1c2c(nc3oc(-c4ccc(Cl)cc4)cc13)CCCCC2` the pIC50 (Acetylcholinesterase [5]) was < 4.00 and the pIC50 (Cholinesterase [6]) was 4.37.

With `Cc1ccc(-c2cc3c(N)c4c(nc3o2)CCCC4)cc1` the pIC50 (Cholinesterase [1]) was 5.54, the pIC50 (Acetylcholinesterase [7]) was < 4.00 and the pIC50 (Cholinesterase [8]) was 3.92. For the same compound, the pIC50 (Acetylcholinesterase [2]) was < 4.00.

`Nc1c2c(nc3oc(-c4ccccc4)cc13)CCCC2` was tested, and the pIC50 (Cholinesterase [1]) was 5.44, the pIC50 (Acetylcholinesterase [7]) was < 4.00 and the pIC50 (Cholinesterase [8]) was 5.42. The pIC50 (Acetylcholinesterase [2]) was < 4.00.

With `Nc1c2c(nc3oc(-c4ccc(Cl)cc4)cc13)CCCC2` the pIC50 (Cholinesterase [1]) was 4.64, the pIC50 (Acetylcholinesterase [7]) was < 4.00 and the pIC50 (Cholinesterase [8]) was 4.58. The pIC50 (Acetylcholinesterase [2]) was < 4.00.

`Nc1c2c(nc3c1cc(-c1ccc(Cl)cc1)n3-c1ccccc1)CCCC2` was tested, and the pIC50 (Acetylcholinesterase [5]) was 4.62 and the pIC50 (Cholinesterase [6]) was 4.82.

For `Cc1ccc(-c2cc3c(N)c4c(nc3o2)CCCCC4)cc1`, the pIC50 (Acetylcholinesterase [5]) was < 4.52 and the pIC50 (Cholinesterase [6]) was 4.89.
